The compounds below were run against HIF-PH2 (EGLN1) (Homo sapiens (Human), UniProt Q9GZT9) (assay: HIF-PH assay (14CO2 capture, peptide-dependent turnover)). Conditions: enzyme inhibition against HIF-PH2; peptide-dependent percent turnover.
Format: biochemical
Excerpt: Ketoglutaric acid α-[1-^14C]-sodium salt, alpha-ketoglutaric acid sodium salt, and HPLC purified peptide may be obtained from commercial sources, e.g., Perkin-Elmer (Wellesley Mass.), Sigma-Aldrich, and SynPep Corp. (Dublin Calif.), respectively. […] For example, a HIF peptide for use in the HIF-PH assay is [methoxycoumarin]-[…]-amide. HIF-PH, e.g., HIF-PH2 (EGLN1), can be expressed in, e.g., insect Hi5 cells, and partially purified, e.g., through a SP ion exchange chromatography column. […] Reactions are initiated by addition of HIF-PH enzyme.
The peptide-dependent percent turnover is calculated by subtracting percent turnover in the absence of peptide from percent turnover in the presence of substrate peptide. Percent inhibition and IC50 are calculated using peptide-dependent percent turnover at given inhibitor concentrations. Calculation of IC50 values for each inhibitor is conducted using GraFit software (Erithacus Software Ltd., Surrey UK).
Representative compounds of the disclosure were analyzed using the HIF-PH assay described above.

HIF-PH2 (EGLN1), sequence (Q9GZT9 whole entry): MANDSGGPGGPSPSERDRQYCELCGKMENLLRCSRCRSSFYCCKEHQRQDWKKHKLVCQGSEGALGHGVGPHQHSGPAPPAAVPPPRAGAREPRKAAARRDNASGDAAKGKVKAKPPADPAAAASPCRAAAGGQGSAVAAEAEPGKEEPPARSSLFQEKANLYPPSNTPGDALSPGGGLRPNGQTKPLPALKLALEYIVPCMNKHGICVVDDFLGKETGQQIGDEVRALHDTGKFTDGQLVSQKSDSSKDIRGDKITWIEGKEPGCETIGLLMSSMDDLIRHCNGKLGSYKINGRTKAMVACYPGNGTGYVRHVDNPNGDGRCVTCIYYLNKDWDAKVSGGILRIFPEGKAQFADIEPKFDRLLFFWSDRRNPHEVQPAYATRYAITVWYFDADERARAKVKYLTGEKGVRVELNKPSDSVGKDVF

Row | IC50 | SMILES
1 | > 200 µM | CNC(=O)c1nc(C#N)c2c(=O)n(Cc3ccccc3)ccc2c1O [Example 38, 7-Benzyl-1-cyano-4-hydroxy-8-oxo-7,8-dihydro-[2,7]naphthyridine-3-carboxylic acid methylamide]
2 | 107 µM | O=C(O)CCNC(=O)c1nc(-c2ccc(C(F)(F)F)nc2)c2c(cc(-c3ccccc3)c(=O)n2Cc2ccccc2)c1O [Example 180, 3-{[1-Benzyl-5-hydroxy-2-oxo-3-phenyl-8-(6-trifluoromethyl-pyridin-3-yl)-1,2-dihydro-[1,7]naphthyridine-6-carbonyl]-amino}-propionic acid]
3 | 200 µM | CCNC(=O)NCCNC(=O)c1ncc2c(cc(-c3ccccc3)c(=O)n2Cc2ccccc2)c1O [Example 110, 1-Benzyl-5-hydroxy-2-oxo-3-phenyl-1,2-dihydro-[1,7]naphthyridine-6-carboxylic acid [2-(3-ethyl-ureido)-ethyl]-amide]
4 | > 200 µM | CNC(=O)c1nc(C#N)c2ccc(=O)n(Cc3ccccc3)c2c1O [Example 79, 1-Benzyl-5-cyano-8-hydroxy-2-oxo-1,2-dihydro-[1,6]naphthyridine-7-carboxylic acid methylamide]
5 | > 200 µM | CN(CCNC(=O)c1ncc2ccc(=O)n(Cc3ccccc3)c2c1O)S(C)(=O)=O [Example 105, 1-Benzyl-8-hydroxy-2-oxo-1,2-dihydro-[1,6]naphthyridine-7-carboxylic acid [2-(methanesulfonyl-methyl-amino)-ethyl]amide]
6 | > 200 µM | N#Cc1nc(C(=O)NCCN2CCOCC2)c(O)c2ccn(Cc3ccccc3)c(=O)c12 [Example 59, 7-Benzyl-1-cyano-4-hydroxy-8-oxo-7,8-dihydro-[2,7]naphthyridine-3-carboxylic acid (2-morpholin-4-yl-ethyl)-amide]
7 | 138 µM | O=C(O)CCNC(=O)c1nc(-c2nccs2)c2c(cc(-c3ccccc3)c(=O)n2Cc2ccccc2)c1O [Example 195, 3-[(1-Benzyl-5-hydroxy-2-oxo-3-phenyl-8-thiazol-2-yl-1,2-dihydro-[1,7]naphthyridine-6-carbonyl)-amino]-propionic acid]
8 | > 200 µM | CS(=O)(=O)NCCNC(=O)c1ncc2ccc(=O)n(Cc3ccccc3)c2c1O [Example 111, 1-Benzyl-8-hydroxy-2-oxo-1,2-dihydro-[1,6]naphthyridine-7-carboxylic acid (2-methanesulfonylamino-ethyl)-amide]
9 | 103 µM | O=C(N[C@H](Cc1ccccc1)C(=O)O)c1ncc2c(cc(-c3ccccc3)c(=O)n2Cc2ccccc2)c1O [Example 152, (R)-2-[(1-Benzyl-5-hydroxy-2-oxo-3-phenyl-1,2-dihydro-[1,7]naphthyridine-6-carbonyl)-amino]-3-phenyl-propionic acid]
10 | 200 µM | O=C(O)CCNC(=O)c1nc(-c2cscn2)c2c(cc(-c3ccccc3)c(=O)n2Cc2ccccc2)c1O [Example 202, 3-[(1-Benzyl-5-hydroxy-2-oxo-3-phenyl-8-thiazol-4-yl-1,2-dihydro-[1,7]naphthyridine-6-carbonyl)-amino]-propionic acid]
11 | > 200 µM | O=C(NCCNC(=O)C(F)(F)F)c1ncc2c(cc(-c3ccccc3)c(=O)n2Cc2ccccc2)c1O [Example 109, 1-Benzyl-5-hydroxy-2-oxo-3-phenyl-1,2-dihydro-[1,7]naphthyridine-6-carboxylic acid [2-(2,2,2-trifluoro-acetylamino)-ethyl]-amide]
12 | > 200 µM | N#Cc1nc(C(=O)NCCCCC(=O)O)c(O)c2ccn(Cc3ccccc3)c(=O)c12 [Example 52, 5-[(7-Benzyl-1-cyano-4-hydroxy-8-oxo-7,8-dihydro-[2,7]naphthyridine-3-carbonyl)-amino]-pentanoic acid]
13 | 199 µM | Cc1ncccc1-c1nc(C(=O)NCCC(=O)O)c(O)c2cc(-c3ccccc3)c(=O)n(Cc3ccccc3)c12 [Example 178, 3-{[1-Benzyl-5-hydroxy-8-(2-methyl-pyridin-3-yl)-2-oxo-3-phenyl-1,2-dihydro-[1,7]naphthyridine-6-carbonyl]-amino}-propionic acid]
14 | > 200 µM | COc1ccc(Cn2ccc3c(O)c(C(=O)NCCc4ccccc4)ncc3c2=O)c(OC)c1 [Example 76, 7-(2,4-Dimethoxy-benzyl)-4-hydroxy-8-oxo-7,8-dihydro-[2,7]naphthyridine-3-carboxylic acid phenethyl-amide]
15 | 181 µM | O=C(O)CCNC(=O)c1ncc2ccn(Cc3ccccc3)c(=O)c2c1O [Example 54, 3-[(6-Benzyl-4-hydroxy-5-oxo-5,6-dihydro-[2,6]naphthyridine-3-carbonyl)-amino]-propionic acid]
16 | > 200 µM | N#Cc1nc(C(=O)NCCCCC(=O)O)c(O)c2cc(-c3ccccc3)c(=O)n(Cc3ccccc3)c12 [Example 24, 5-[(1-Benzyl-8-cyano-5-hydroxy-2-oxo-3-phenyl-1,2-dihydro-[1,7]naphthyridine-6-carbonyl)-amino]-pentanoic acid]
17 | 200 µM | O=C(O)CCNC(=O)c1nc(-c2ccncc2)c2c(cc(-c3ccccc3)c(=O)n2CC2CCCCC2)c1O [Example 198, 3-[(1-Cyclohexylmethyl-5-hydroxy-2-oxo-3-phenyl-8-pyridin-4-yl-1,2-dihydro-[1,7]naphthyridine-6-carbonyl)-amino]-propionic acid]
18 | > 200 µM | N#Cc1nc(C(=O)N[C@@H](Cc2ccccc2)C(=O)O)c(O)c2ccn(Cc3ccccc3)c(=O)c12 [Example 56, (S)-2-[(7-Benzyl-1-cyano-4-hydroxy-8-oxo-7,8-dihydro-[2,7]naphthyridine-3-carbonyl)-amino]-3-phenyl-propionic acid]
19 | > 200 µM | N#Cc1nc(C(=O)NC2CC2)c(O)c2ccn(Cc3ccccc3)c(=O)c12 [Example 39, 7-Benzyl-1-cyano-4-hydroxy-8-oxo-7,8-dihydro-[2,7]naphthyridine-3-carboxylic acid cyclopropylamide]
20 | 182 µM | N#Cc1nc(C(=O)NCC2(C(=O)O)CCC2)c(O)c2ccn(Cc3ccccc3)c(=O)c12 [Example 62, 1-{[(7-Benzyl-1-cyano-4-hydroxy-8-oxo-7,8-dihydro-[2,7]naphthyridine-3-carbonyl)-amino]-methyl}-cyclobutanecarboxylic acid]
21 | 200 µM | O=C(O)CCNC(=O)c1nc(-c2cccnn2)c2c(cc(-c3ccccc3)c(=O)n2Cc2ccccc2)c1O [Example 203, 3-[(1-Benzyl-5-hydroxy-2-oxo-3-phenyl-8-pyridazin-3-yl-1,2-dihydro-[1,7]naphthyridine-6-carbonyl)-amino]-propionic acid]
22 | 200 µM | O=C(O)CCNC(=O)c1nc(-c2cccnc2)c2c(=O)n(Cc3ccccc3)ccc2c1O [Example 206, 3-[(7-Benzyl-4-hydroxy-8-oxo-1-pyridin-3-yl-7,8-dihydro-[2,7]naphthyridine-3-carbonyl)-amino]-propionic acid]

Source: US8921389B2, “Naphthyridine derivatives as inhibitors of hypoxia inducible factor (HIF) hydroxylase” (Fibrogen, Inc., priority 2011, dated 2014)
